Laboratory results taken from BindingDB's records for patent US12331046 (Nimbus Clotho, 2025).

Target: T1, CTP synthase 1 (Homo sapiens, UniProt P17812)
T1 sequence (P17812 whole entry): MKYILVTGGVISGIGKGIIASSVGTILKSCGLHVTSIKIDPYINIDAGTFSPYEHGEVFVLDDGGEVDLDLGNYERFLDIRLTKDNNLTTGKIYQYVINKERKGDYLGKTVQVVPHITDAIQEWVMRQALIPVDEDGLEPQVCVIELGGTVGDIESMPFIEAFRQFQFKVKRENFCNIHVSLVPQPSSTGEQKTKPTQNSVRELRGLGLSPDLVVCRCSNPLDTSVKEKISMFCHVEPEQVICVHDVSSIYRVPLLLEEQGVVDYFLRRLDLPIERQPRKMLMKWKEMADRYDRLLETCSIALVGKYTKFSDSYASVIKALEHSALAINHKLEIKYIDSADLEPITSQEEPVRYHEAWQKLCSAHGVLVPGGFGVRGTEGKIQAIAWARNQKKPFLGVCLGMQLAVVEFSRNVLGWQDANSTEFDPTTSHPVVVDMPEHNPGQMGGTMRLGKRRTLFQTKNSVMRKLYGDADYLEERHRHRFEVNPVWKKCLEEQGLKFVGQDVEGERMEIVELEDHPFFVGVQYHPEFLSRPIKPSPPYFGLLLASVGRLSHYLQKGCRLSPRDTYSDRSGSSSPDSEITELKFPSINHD
Test: hCTPS1 Biochemical Assay
Experimental: Purified human CTPS1 protein was prepared in 1× assay buffer to the final working protein concentration required for the reaction. A 2.5 uL volume per well of human CTPS1 protein was mixed with 0.1 uL per well of test compound dissolved in DMSO and pre-incubated at 25 degrees C. for 10 minutes. 2.5 uL per well of the reaction precursors ATP (UltraPure ATP from ADP-Glo™ kit) and UTP were then added and pre-incubated for an additional 10 minutes at 25 degrees C. Finally, the reaction was initiated by the addition of 5 uL of the reaction precursors L-glutamine and GTP. The final concentration of all reaction components in the assay: ATP (120 uM), UTP (160 uM), GTP (60 uM), L-Glutamine (100 uM), DMSO (1%), hCTPS1 (25 nM). This mixture was incubated for an appropriate amount of time within the determined linear phase of the reaction at 25 degrees C. under sealed plate conditions with constant agitation at 500 revolutions per minute (rpm). ADP-Glo™ reagent was added for 60 minutes (10 uL per well) and subsequently ADP-Glo™ development reagent was added for 60 minutes (20 uL per well) prior to signal detection in a microplate reader (Envision Multilabel Reader, Perkin Elmer). Following each reagent addition over the course of the assay, assay plates were pulse centrifuged for 1 minute at 1000 rpm.

| Structure (SMILES) | IC50 |
| --- | --- |
| CCc1c[nH]c2ncc(-c3ccc(C(=O)NCc4cc(NS(=O)(=O)C5CC5)ccn4)cc3)cc12 [US12331046, Compound I-38] | < 0.1 µM |
| CCOc1cncc(-c2ccc(C(=O)NC(C#N)c3cc(NS(=O)(=O)C4CC4)ccn3)cc2)n1 (stereo not given) [US12331046, Compound I-64] | < 0.1 µM |
| CCOc1cncc(-c2cnc(C(=O)NCc3cccc(NS(=O)(=O)C(F)F)c3)s2)n1 [US12331046, Compound I-61] | < 0.1 µM |

Now from value to molecule:

| IC50 | Structure (SMILES) |
| --- | --- |
| < 0.1 µM | CCOc1cncc(-c2nnc(C(=O)N[C@H](CC)c3cc(NS(=O)(=O)C4CC4)ccn3)s2)n1 [US12331046, Compound I-240] |
| < 0.1 µM | CCOc1cncc(-c2cnc(C(=O)NCc3cc(F)cc(NS(=O)(=O)C4CC4)c3)s2)n1 [US12331046, Compound I-256] |
